Assay results reported in PMC7932521, “2-aminobenzimidazoles for leishmaniasis: From initial hit discovery to in vivo profiling” (PLoS Neglected Tropical Diseases, 2021).
Values after ≈ are worked out from the molar mass of the structure shown. Where two headings read alike, the source gives them in different places.

What was measured:
D2L [1] = target: T1, D2L (Homo sapiens, UniProt P14416); test: Bioprofiling 6pt Ag D2L CHO; type: cell-based; details: agonist readout
T1 construct: expressed in transfected cells; host or cells: CHO
Procedure: (§1) The compounds were evaluated across a panel of 20 liability targets (37 functional assays) which included functional cell-based GPCRs and ion channels in both agonist and antagonist readout, measuring calcium flux and biochemical functional assays for nuclear hormone receptors and phosphodiesterases using TR-FRET format, in a 6 point 1:3 dilution dose series (maximum final concentration of 10 μM).

PDE3A = PDE3A (Homo sapiens, UniProt Q14432); test: Bioprofiling 6pt Antag PDE3A; type: biochemical; details: substrate cAMP
Procedure: as §1

[2] = test system: Leishmania infantum MHOM/MA(BE)/67/ITMAP263 amastigotes; test: L. infantum intracellular amastigote assay in PMM; type: cell-based; details: for SI: selectivity index (CC50 / IC50): CC50 / L. infantum IC50; for IC50: read-out: L. infantum IC50
Method in brief: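 Mouse peritoneal macrophages infected with hamster spleen-derived amastigotes (2 h, 37°C), then exposed to 4-fold dilutions from 64 μM (DMSO <1%) for 5 days at 37°C, 5% CO2. Burden scored microscopically after Giemsa staining as percent reduction vs untreated wells; IC50 as geometric mean of ≥2 experiments.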

Plasma stability = type: in vitro ADME, mouse; details: for Mouse plasma stability: % remaining after 6h; for Plasma Stability: S1 Data
Procedure: Pooled plasma was thawed in a water bath at 37°C and centrifuged at 4,000 rpm for 5 min to remove any clots. Plasma solution was prepared by adding PBS (pH 7.4) in a 1:1 ratio. It was not necessary to adjust the pH of the final plasma solution. Plasma:PBS and test compound solutions were added to the incubation plate at a final concentration of 2 μM. The plate was incubated in a shaker at 37°C and 50 rpm. Samples were removed (25 μL) from each well of the incubation plate at multiple timepoints and added to a plate containing 100 μL of quench solution (200 ng/mL tolbutamide in 50% acetonitrile/methanol) to precipitate protein. The quenched aliquots were centrifuged at 4000 rpm for 10 min at 5°C. An aliquot of supernatant was transferred from each well to a plate for analysis by LC-MS/MS. Results were calculated as the percentage of remaining parent compound in plasma after incubation.

5-HT1A = target: T2, 5-HT1A (Homo sapiens, UniProt P08908); test: Bioprofiling 6pt Antag 5-HT1A CHO; type: cell-based; details: antagonist readout vs 5-Carboxytryptamine (5-CT)
T2 construct: expressed in transfected cells; host or cells: CHO
T2 sequence (P08908 1-422): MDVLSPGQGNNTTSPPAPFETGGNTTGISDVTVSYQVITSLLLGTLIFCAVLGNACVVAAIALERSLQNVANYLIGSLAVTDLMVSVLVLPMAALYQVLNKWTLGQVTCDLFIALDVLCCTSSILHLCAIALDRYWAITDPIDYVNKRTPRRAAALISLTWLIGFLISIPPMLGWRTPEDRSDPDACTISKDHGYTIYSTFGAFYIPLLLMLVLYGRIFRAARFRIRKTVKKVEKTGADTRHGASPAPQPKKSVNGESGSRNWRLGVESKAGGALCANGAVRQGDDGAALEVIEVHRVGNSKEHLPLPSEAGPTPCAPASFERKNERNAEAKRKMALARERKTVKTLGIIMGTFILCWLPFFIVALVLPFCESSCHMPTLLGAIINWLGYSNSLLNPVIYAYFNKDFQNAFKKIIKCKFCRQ
Procedure: as §1

Kinetic solubility = type: physicochemical; details: for solubility kinetic at 24 h: PBS buffer pH 7.4, aqueous buffer, kinetic from dmso stock, PBS pH 7.4, read-out: KS PBS - pH7.4; for KS pH 7.4: kinetic solubility
Procedure: The precipitates on the incubation plate were removed by centrifugation (15 min, 3000 rpm, r.t.); the compound concentration in the resulting supernatant was determined by LC-MS/MS. Results were calculated as the concentration of remaining compound in solution after incubation.

HEPG2 cytotoxicity = type: cell-based; details: human, HepG2 cells; S1 Data
From the text: Supplement pntd.0009196.s001.xlsx, sheet "Complete Dataset" | column: HEPG2 CC50 (uM)

D2L [3] = target: T1, D2L; test: Bioprofiling 6pt Antag D2L CHO; type: cell-based; details: antagonist readout vs Quinpirole
Procedure: as §1

5-HT2B = target: T3, 5-HT2B (Homo sapiens, UniProt P41595); test: Bioprofiling 6pt Antag 5-HT2B CHO; type: cell-based; details: antagonist readout vs Serotonin (5-HT)
T3 construct: expressed in transfected cells; host or cells: CHO
Procedure: as §1

B2 [4] = target: T4, B2 (Homo sapiens, UniProt P30411); test: Bioprofiling 6pt Ag B2 CHO; type: cell-based; details: agonist readout
T4 construct: expressed in transfected cells; host or cells: CHO
T4 sequence (P30411 1-391): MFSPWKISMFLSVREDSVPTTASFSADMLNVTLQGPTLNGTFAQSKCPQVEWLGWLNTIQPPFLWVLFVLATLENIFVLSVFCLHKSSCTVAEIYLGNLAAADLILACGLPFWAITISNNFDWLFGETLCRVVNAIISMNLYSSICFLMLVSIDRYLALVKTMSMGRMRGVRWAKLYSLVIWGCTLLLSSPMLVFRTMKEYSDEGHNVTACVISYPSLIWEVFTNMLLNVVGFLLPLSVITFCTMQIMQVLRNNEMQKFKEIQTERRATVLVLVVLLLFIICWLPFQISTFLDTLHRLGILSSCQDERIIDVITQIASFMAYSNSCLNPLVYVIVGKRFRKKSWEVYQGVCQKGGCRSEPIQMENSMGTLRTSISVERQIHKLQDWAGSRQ
Procedure: as §1

CB1 = target: T5, CB1 (Homo sapiens, UniProt P21554); test: Bioprofiling 6pt Ag CB1 CHO; type: cell-based; details: agonist readout
T5 construct: expressed in transfected cells; host or cells: CHO
Procedure: as §1

B2 [5] = target: T4, B2; test: Bioprofiling 6pt Antag B2 CHO; type: cell-based; details: antagonist readout vs Bradykinin
Procedure: as §1

PDE4B2 = PDE4B2 (Homo sapiens, UniProt Q07343); test: Bioprofiling 6pt Antag PDE4B2; type: biochemical; details: substrate cAMP
Procedure: as §1

[6] = Leishmania infantum, 120 h, intracellular amastigotes in PMM, 5 days

Chain of PDE3A (Q14432 whole entry): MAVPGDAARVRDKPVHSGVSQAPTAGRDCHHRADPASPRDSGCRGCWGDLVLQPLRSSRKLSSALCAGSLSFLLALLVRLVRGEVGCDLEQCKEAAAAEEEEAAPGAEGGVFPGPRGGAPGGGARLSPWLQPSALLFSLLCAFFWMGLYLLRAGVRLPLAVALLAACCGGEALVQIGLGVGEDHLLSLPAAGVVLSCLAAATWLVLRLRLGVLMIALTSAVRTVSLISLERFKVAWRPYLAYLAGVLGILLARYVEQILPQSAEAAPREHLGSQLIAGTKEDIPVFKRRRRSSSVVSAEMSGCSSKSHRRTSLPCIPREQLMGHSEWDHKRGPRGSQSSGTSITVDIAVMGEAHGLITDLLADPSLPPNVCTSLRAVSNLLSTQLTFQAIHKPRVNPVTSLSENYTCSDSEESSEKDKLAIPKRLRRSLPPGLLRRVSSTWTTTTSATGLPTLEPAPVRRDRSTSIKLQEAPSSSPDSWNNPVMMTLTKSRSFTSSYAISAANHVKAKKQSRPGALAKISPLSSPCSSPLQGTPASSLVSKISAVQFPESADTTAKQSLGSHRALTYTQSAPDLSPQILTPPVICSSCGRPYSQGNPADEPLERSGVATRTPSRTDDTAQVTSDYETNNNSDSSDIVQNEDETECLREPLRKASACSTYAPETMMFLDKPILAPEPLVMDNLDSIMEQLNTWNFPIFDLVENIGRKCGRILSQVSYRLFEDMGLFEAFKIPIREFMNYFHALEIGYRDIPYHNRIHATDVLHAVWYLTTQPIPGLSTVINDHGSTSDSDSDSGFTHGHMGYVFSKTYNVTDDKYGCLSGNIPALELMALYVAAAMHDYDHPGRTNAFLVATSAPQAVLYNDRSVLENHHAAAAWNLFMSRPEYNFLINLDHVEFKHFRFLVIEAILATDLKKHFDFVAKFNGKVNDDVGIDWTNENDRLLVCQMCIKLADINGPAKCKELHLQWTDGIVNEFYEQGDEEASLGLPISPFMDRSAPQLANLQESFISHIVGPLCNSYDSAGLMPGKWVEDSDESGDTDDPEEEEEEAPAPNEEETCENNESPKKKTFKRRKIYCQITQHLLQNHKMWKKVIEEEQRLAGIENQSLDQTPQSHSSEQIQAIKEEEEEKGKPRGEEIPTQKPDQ
T3 sequence (P41595 whole entry): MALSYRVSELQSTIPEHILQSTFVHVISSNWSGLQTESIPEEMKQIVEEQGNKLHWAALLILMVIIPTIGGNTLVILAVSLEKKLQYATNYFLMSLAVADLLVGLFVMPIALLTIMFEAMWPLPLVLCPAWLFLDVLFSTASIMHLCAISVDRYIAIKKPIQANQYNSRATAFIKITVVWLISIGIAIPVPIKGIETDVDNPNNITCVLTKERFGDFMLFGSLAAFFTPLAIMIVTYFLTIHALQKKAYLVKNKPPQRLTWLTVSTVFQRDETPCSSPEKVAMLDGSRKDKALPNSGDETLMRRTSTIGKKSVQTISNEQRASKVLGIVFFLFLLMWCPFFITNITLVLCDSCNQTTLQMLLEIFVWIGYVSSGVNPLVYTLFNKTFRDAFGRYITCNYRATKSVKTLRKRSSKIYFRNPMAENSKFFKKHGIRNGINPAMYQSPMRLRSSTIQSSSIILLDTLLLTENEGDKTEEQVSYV
T1 sequence (P14416 whole entry): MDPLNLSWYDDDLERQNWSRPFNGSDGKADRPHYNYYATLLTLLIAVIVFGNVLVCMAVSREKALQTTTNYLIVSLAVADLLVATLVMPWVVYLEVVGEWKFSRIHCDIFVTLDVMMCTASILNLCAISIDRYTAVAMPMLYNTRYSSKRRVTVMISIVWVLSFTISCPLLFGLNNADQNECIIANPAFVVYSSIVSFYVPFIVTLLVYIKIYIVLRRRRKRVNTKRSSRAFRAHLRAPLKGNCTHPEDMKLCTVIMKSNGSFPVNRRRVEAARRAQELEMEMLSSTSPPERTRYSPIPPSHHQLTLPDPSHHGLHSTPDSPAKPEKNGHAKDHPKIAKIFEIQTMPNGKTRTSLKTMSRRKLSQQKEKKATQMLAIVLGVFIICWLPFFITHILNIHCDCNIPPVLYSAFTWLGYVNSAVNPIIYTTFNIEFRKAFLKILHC
Chain of PDE4B2 (Q07343 1-564 isoform Q07343-2): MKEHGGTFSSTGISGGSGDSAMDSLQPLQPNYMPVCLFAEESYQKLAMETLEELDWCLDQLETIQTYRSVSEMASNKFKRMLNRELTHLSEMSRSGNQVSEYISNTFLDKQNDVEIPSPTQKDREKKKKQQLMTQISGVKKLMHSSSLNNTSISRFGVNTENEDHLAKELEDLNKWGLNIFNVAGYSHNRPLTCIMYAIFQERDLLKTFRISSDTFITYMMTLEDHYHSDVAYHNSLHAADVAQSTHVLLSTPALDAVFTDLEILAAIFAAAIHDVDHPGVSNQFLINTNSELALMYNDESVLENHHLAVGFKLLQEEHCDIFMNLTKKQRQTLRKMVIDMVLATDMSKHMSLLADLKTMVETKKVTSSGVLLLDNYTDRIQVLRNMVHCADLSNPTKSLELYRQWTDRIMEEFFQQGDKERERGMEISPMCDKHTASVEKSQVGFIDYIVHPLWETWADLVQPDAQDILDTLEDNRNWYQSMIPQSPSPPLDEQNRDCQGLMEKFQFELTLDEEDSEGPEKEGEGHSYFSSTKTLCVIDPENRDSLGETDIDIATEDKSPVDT
T5 sequence (P21554 whole entry): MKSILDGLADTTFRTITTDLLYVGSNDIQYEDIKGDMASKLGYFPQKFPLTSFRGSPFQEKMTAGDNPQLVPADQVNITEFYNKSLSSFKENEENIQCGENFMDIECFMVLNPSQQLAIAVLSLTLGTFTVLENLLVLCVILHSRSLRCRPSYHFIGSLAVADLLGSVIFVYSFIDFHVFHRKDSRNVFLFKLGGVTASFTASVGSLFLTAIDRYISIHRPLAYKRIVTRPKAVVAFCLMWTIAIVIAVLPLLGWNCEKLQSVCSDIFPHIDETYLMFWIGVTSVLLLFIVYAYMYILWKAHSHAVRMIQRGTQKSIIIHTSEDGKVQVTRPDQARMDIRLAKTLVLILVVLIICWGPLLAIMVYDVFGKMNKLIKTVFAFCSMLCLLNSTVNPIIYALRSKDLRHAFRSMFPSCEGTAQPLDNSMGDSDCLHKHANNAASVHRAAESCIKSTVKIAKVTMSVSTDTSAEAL

SMILES | EC50 (D2L [1]) [µM] | IC50 (PDE3A) [µM] | SI: selectivity index (CC50 / IC50) [2] | potency compared to initial hit 1 ([2]; L. infantum IC50) [fold] | IC50 [2, 6] [µM] | Mouse plasma stability (Plasma stability) [%] | Plasma Stability (Plasma stability) [%] | IC50 (5-HT1A) [µM] | solubility kinetic at 24 h (Kinetic solubility) [µg/mL] | KS PBS - pH 2 (Kinetic solubility) [ug/mL] | KS pH 7.4 (Kinetic solubility) [μM] | CC50 (HEPG2 cytotoxicity) [µM] | IC50 (D2L [3]) [µM] | IC50 (5-HT2B) [µM] | EC50 (B2 [4]) [µM] | EC50 (CB1) [µM] | IC50 (B2 [5]) [µM] | IC50 (PDE4B2) [µM] | IC50 ([2]; Leishmania infantum, S1 Data) [µM] | also measured
N#Cc1ccc2nc(NC(=O)c3ccnc(C(F)(F)F)c3)n(CC(F)(F)F)c2c1 [Compound 44, O=C(c1ccnc(C(F)(F)F)c1)Nc2nc(ccc(C#N)c3)c3n2CC(F)(F)F] | > 10 | 2.7 | 5 | 10 to 20 | 0.84 | 111 | 110.80 | > 10 | 0.41 (≈ 0.992 µM) | 0.41 | <1.0 | 2.38 | > 10 | > 10 | > 10 | > 10 | > 10 | > 10 |  | 
COc1ccc(C(=O)Nc2nc3ccc(C#N)cc3n2CC(F)(F)F)cn1 [Compound 43, O=C(c1ccc(OC)nc1)Nc2nc(ccc(C#N)c3)c3n2CC(F)(F)F] | > 10 | > 10 | 5 |  | 7 |  | 92.20 | > 10 | 0.38 (≈ 1.01 µM) | 0.38 |  | 2.6 | > 10 | > 10 | > 10 | > 10 | > 10 | > 10 | 6.95 | 
Cn1nccc1C(=O)Nc1nc2ccc(C#N)cc2n1CC(C)(C)C [Compound 29, O=C(Nc1n(CC(C)(C)C)c(c2n1)cc(C#N)cc2)c3n(C)ncc3] | > 10 | > 10 | 7 |  | 4.1 | 99.8 | 99.80 | > 10 | 3.11 (≈ 9.24 µM) | 1.77 | 9.2 | 9.08 | > 10 | > 10 | > 10 | > 10 | > 10 | > 10 | 4.12 | 
N#Cc1ccc2nc(NC(=O)c3ccc(C(F)(F)F)nc3)n(CC(F)(F)F)c2c1 [Compound 45, O=C(c1ccc(C(F)(F)F)nc1)Nc2nc(ccc(C#N)c3)c3n2CC(F)(F)F] | > 10 | > 10 | 2 |  | 4.3 |  | 135 | > 10 | 0.41 (≈ 0.992 µM) | 0.41 |  | 1.12 | > 10 | > 10 | > 10 | > 10 | > 10 | > 10 | 4.28 | 
Cn1nccc1C(=O)Nc1nc2ccc(C#N)cc2n1CC(F)(F)F [Compound 30, O=C(c1ccnn1C)Nc2nc(ccc(C#N)c3)c3n2CC(F)(F)F] | > 10 | > 10 | 14 |  | 2.2 | 107 | 107 | > 10 | 9.22 (≈ 26.5 µM) | 10.45 | 26 | 5.46 | > 10 | > 10 | > 10 | > 10 | > 10 | > 10 | 2.22 | 
Cn1nc(C(F)(F)F)cc1C(=O)Nc1nc2ccc(C#N)cc2n1CC(F)(F)F [Compound 39, O=C(c1cc(C(F)(F)F)nn1C)Nc2nc(ccc(C#N)c3)c3n2CC(F)(F)F] | > 10 | 3.32 | 2 | 10 to 20 | 0.5 | 111 | 111 | > 10 | 0.42 (≈ 1.01 µM) | 0.42 | <1.0 | 1.13 | > 10 | > 10 | > 10 | > 10 | > 10 | > 10 |  | potency compared to parent compound 30 ([2]; L. infantum IC50): 4 fold; IC50 ([2]; intracellular amastigotes in PMM, 5 days): 0.53 µM
